Experimental data taken from ChEMBL document CHEMBL1201862, “PubChem BioAssay data set” (2004).
Values joined by “and” are separate entries in the source; they are usually repeats but may differ in a detail not shown here. Equal entries are not always repeated. Active and inactive are the calls of the source.

How the values were obtained:
[1] = biological target: G-protein coupled receptor 55 (Homo sapiens, UniProt Q9Y2T6); experiment: GPR55 agonists via beta-arrestin recruitment, primary screen, imaging, U2OS cells, beta-arrestin-GFP redistribution (AID 1961); assay type: functional
G-protein coupled receptor 55, sequence (Q9Y2T6 whole entry): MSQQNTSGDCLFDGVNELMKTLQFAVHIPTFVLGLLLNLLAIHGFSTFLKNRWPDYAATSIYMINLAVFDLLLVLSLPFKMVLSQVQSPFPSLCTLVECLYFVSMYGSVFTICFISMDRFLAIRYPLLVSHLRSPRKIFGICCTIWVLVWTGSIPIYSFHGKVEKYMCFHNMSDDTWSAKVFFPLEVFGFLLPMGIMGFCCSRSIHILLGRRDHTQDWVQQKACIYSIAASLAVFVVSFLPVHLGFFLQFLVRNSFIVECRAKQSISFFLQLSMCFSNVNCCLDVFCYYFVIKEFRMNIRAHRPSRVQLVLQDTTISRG

[2] = biological target: T1, Intestinal-type alkaline phosphatase (Mus musculus, UniProt P24822); experiment: PubChem AID 488875; assay type: functional
T1 sequence (P24822 whole entry): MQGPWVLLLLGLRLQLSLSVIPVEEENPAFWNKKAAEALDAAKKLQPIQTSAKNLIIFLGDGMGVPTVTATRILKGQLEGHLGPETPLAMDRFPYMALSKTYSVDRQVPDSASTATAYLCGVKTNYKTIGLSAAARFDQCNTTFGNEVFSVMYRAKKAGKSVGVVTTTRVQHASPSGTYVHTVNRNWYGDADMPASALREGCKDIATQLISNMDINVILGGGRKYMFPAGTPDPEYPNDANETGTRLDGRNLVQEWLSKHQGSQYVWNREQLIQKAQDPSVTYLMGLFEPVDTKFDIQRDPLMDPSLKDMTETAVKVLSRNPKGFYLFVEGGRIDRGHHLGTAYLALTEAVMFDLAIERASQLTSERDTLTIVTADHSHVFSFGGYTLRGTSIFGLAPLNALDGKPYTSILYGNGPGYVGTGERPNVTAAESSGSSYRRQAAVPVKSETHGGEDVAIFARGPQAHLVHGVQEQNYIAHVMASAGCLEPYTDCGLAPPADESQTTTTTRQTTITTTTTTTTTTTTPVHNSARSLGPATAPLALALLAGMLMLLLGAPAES

[3] = biological target: T2, Intestinal-type alkaline phosphatase (Homo sapiens, UniProt P09923); experiment: activation of human intestinal alkaline phosphatase – biochemical, dose response (AID 488873); assay type: functional
T2 sequence (P09923 whole entry): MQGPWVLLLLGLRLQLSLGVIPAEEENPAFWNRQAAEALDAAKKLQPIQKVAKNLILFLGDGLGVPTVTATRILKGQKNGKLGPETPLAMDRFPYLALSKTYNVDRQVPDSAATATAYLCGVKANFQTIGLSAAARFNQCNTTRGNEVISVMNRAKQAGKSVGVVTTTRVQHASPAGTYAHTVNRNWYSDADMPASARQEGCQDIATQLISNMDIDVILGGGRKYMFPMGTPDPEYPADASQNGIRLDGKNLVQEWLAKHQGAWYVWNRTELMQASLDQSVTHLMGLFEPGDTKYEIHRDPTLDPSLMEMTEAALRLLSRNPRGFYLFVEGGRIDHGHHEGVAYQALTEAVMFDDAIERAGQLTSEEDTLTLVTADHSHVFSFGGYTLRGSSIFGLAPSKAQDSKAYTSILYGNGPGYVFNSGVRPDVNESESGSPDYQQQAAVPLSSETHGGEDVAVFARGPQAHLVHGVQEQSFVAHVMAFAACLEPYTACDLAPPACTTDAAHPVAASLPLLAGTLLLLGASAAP

[4] = biological target: T2, Intestinal-type alkaline phosphatase; experiment: human intestinal alkaline phosphatase activators, dose response, biochemical, luminescence, uHTS hits (AID 463120); assay type: functional
[5] = biological target: T1, Intestinal-type alkaline phosphatase; experiment: PubChem AID 488785; assay type: functional
[6] = biological target: T3, Alkaline phosphatase, tissue-nonspecific isozyme (Homo sapiens, UniProt P05186); experiment: TNAP enzyme inhibition by screening hits, dose response, selectivity assay for mouse IAP inhibitor project, biochemical, human TNAP, uHTS hits (AID 488906); assay type: functional
T3 sequence (P05186 whole entry): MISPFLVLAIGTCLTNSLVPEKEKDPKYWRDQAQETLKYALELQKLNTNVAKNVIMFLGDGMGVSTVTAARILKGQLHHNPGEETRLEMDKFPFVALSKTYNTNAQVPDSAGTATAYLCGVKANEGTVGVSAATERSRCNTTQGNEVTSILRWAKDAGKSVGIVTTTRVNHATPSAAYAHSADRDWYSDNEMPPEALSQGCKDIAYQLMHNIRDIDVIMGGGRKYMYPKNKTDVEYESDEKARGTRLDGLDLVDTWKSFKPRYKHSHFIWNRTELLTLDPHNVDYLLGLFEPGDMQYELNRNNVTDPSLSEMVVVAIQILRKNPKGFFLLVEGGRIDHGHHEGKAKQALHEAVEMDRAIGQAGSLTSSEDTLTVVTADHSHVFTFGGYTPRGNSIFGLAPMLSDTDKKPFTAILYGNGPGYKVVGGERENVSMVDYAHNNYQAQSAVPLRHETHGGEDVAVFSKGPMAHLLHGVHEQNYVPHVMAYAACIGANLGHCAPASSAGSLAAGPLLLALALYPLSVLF

[7] = biological target: T2, Intestinal-type alkaline phosphatase; experiment: human IAP activators, dose response, biochemical, luminescent, uHTS hits, set 2 (AID 488817); assay type: functional;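 also: potency of activators that raise enzyme activity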
[8] = biological target: T3, Alkaline phosphatase, tissue-nonspecific isozyme; experiment: TNAP enzyme activators, dose response, selectivity assay for human IAP activator project, biochemical, TNAP isozyme, human IAP uHTS hits (AID 488886); assay type: functional;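 also: potency of compounds raising TNAP activity as a selectivity check on IAP activators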
[9] = biological target: T4, Type-1 angiotensin II receptor (Homo sapiens, UniProt P30556); experiment: AT1 receptor agonists, dose response, selectivity assay for APJ receptor agonist project, cell-based, uHTS hits (AID 488865); assay type: functional;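 also: beta-arrestin recruitment to AT1 measured by enzyme fragment complementation luminescence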
T4 sequence (P30556 whole entry): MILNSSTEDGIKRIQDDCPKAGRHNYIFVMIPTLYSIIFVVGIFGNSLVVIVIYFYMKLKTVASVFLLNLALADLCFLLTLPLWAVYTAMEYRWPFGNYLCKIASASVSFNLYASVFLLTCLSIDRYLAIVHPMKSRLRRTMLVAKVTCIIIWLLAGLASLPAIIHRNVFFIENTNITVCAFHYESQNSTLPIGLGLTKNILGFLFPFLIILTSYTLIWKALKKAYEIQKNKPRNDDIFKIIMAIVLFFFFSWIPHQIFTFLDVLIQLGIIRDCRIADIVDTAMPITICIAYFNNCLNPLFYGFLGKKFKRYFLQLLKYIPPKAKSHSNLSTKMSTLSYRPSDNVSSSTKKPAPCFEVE

[10] = biological target: Sphingosine 1-phosphate receptor 1 (Homo sapiens, UniProt P21453); experiment: Fluorescence-based counterscreen assay for S1P4 agonists: Cell-based dose response high throughput screening assay to identify agonists of the Sphingosine 1-Phosphate Receptor 1 (S1P1). [Related pubchem assays (depositor defined):AID1509, AID1523, AID1801, AID463107, AID463118, AID463119, AID463122, AID463123, AID463129, AID463225, AID504400, AID504460]; assay type: functional
Sphingosine 1-phosphate receptor 1, sequence (P21453 whole entry): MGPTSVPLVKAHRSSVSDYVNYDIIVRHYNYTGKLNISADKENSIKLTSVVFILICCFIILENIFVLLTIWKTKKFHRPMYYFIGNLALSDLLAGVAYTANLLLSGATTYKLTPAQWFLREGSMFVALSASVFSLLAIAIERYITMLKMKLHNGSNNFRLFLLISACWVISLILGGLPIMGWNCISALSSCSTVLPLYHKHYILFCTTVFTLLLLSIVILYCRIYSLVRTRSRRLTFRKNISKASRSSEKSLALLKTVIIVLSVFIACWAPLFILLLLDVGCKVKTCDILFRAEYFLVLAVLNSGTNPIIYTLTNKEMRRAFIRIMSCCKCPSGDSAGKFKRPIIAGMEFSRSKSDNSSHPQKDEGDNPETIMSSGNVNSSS

[11] = biological target: Sphingosine 1-phosphate receptor 4 (Homo sapiens, UniProt O95977); experiment: Fluorescence dose response cell-based high throughput screening assay for agonists of the Sphingosine 1-Phosphate Receptor 4 (S1P4). [Related pubchem assays: 1509 (Primary screen.), 1523 (Confirmation screen in triplicates.)]; assay type: functional
[12] = biological target: T5, Dual specificity protein phosphatase 3 (Homo sapiens, UniProt P51452); experiment: VHR1 phosphatase inhibitors, primary screen, biochemical, absorbance, uHTS (AID 1654)
T5 sequence (P51452 whole entry): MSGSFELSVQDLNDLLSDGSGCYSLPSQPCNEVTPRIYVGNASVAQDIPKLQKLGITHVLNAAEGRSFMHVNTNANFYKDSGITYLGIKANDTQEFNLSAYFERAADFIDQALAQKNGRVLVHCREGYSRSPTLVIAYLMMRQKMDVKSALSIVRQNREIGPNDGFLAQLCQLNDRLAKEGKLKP

[13] = biological target: T5, Dual specificity protein phosphatase 3; experiment: VHR1 phosphatase inhibitors, biochemical (AID 1878)
[14] = biological target: T6, Dual specificity protein phosphatase 6 (Rattus norvegicus, UniProt Q64346); experiment: MKP-3 phosphatase inhibitors, primary screen, biochemical, rat enzyme, in vitro (AID 425)
T6 sequence (Q64346 whole entry): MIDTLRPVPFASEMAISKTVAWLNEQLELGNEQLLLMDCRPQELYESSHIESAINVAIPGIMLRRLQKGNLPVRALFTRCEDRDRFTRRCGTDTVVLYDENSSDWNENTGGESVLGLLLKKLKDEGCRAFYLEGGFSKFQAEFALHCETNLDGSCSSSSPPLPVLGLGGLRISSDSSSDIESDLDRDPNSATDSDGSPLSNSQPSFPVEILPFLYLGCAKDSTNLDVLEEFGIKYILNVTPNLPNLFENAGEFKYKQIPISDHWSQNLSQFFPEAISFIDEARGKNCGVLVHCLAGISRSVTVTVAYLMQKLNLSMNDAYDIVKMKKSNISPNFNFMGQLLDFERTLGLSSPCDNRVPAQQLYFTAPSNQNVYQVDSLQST

[15] = biological target: T5, Dual specificity protein phosphatase 3; experiment: SAR VHR1 absorbance Assay for In Vitro dose response studies. [Related pubchem assays (depositor defined):AID1654, AID1661, AID1878, AID1992, AID2004]
[16] = biological target: T5, Dual specificity protein phosphatase 3; experiment: SAR VHR1 Fluorescent Assay for In Vitro dose response studies. [Related pubchem assays (depositor defined):AID1654, AID1661, AID1878, AID1992, AID2004, AID2070, AID2085]; assay type: functional
[17] = biological target: T5, Dual specificity protein phosphatase 3; experiment: MOA VHR1 Fluorescent secondary assay for identification of redox-state modulating compounds. [Related pubchem assays (depositor defined):AID1654, AID1661, AID1878, AID1957]
[18] = biological target: T7, Tyrosine-protein phosphatase non-receptor type 7 (Homo sapiens, UniProt P35236); experiment: redox-dependent HePTP inhibition, mechanism study, biochemical, fluorescence (AID 2068); assay type: functional
T7 sequence (P35236 whole entry): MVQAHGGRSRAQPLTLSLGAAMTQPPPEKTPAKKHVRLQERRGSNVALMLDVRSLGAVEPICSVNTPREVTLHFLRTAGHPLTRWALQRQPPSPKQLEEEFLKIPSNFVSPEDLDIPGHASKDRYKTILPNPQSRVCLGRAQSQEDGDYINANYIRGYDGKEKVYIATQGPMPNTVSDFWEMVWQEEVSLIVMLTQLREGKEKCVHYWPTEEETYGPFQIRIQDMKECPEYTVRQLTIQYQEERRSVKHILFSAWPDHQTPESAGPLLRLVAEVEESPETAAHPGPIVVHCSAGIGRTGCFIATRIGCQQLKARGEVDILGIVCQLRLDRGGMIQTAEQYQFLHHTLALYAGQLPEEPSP

[19] = biological target: T6, Dual specificity protein phosphatase 6; assay type: functional
[20] = biological target: T8, Polyadenylate-binding protein 1 (Homo sapiens, UniProt P11940); experiment: PABP1 MLLE–PAM2 interaction inhibitors, dose response, miRNA deadenylation inhibitor project, biochemical, fluorescence polarization, Cy5-PAM2 peptide, secondary (AID 602260); assay type: functional; settings: read-out: IC50_Mean
T8 sequence (P11940 whole entry): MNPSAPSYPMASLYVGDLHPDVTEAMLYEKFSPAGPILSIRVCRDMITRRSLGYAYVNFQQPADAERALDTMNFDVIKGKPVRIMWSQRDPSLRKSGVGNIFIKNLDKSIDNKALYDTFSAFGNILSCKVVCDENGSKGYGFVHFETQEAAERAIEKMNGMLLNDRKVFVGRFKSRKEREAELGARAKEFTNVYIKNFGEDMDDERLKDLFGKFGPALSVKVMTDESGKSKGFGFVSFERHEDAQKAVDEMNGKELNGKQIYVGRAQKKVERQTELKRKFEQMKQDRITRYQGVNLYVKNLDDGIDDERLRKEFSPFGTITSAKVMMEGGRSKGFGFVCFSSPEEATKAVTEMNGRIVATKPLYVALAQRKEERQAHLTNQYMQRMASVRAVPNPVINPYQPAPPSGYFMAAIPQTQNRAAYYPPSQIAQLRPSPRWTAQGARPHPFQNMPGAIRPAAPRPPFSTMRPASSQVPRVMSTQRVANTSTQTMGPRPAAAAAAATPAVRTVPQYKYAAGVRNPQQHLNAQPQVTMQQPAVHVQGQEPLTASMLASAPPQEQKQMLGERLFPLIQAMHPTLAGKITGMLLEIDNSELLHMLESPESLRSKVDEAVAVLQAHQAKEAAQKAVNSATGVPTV

[21] = biological target: Tyrosine-protein phosphatase non-receptor type 11 (Homo sapiens, UniProt Q06124); experiment: SHP2 phosphatase inhibition, dose response, selectivity assay for STEP inhibitor project, biochemical (AID 602367); assay type: functional; settings: read-out: IC50_Mean
[22] = biological target: T8, Polyadenylate-binding protein 1; experiment: PABP1 MLLE–PAM2 binding inhibitor potency, dose response, biochemical, fluorescence polarization, FITC-PAM2 peptide (AID 602259); assay type: functional; settings: read-out: IC50_Mean
[23] = biological target: Tyrosine-protein phosphatase non-receptor type 5 (Homo sapiens, UniProt P54829); experiment: STEP phosphatase inhibitors, confirmation, biochemical, fluorescence intensity, uHTS hits (AID 602372); assay type: functional; settings: read-out: IC50_Mean
[24] = biological target: T5, Dual specificity protein phosphatase 3; experiment: VHR phosphatase inhibition, dose response, selectivity assay for STEP inhibitor project, biochemical (AID 602374); assay type: functional; settings: read-out: IC50_Mean
[25] = biological target: Voltage-dependent T-type calcium channel subunit alpha-1H (Homo sapiens, UniProt O95180); experiment: Cav3.2 T-type channel blockers, cell-based, SynthLib3 library, HEK293 Cav3.2, fluorescence (AID 493041); assay type: functional
Voltage-dependent T-type calcium channel subunit alpha-1H, sequence (O95180 whole entry): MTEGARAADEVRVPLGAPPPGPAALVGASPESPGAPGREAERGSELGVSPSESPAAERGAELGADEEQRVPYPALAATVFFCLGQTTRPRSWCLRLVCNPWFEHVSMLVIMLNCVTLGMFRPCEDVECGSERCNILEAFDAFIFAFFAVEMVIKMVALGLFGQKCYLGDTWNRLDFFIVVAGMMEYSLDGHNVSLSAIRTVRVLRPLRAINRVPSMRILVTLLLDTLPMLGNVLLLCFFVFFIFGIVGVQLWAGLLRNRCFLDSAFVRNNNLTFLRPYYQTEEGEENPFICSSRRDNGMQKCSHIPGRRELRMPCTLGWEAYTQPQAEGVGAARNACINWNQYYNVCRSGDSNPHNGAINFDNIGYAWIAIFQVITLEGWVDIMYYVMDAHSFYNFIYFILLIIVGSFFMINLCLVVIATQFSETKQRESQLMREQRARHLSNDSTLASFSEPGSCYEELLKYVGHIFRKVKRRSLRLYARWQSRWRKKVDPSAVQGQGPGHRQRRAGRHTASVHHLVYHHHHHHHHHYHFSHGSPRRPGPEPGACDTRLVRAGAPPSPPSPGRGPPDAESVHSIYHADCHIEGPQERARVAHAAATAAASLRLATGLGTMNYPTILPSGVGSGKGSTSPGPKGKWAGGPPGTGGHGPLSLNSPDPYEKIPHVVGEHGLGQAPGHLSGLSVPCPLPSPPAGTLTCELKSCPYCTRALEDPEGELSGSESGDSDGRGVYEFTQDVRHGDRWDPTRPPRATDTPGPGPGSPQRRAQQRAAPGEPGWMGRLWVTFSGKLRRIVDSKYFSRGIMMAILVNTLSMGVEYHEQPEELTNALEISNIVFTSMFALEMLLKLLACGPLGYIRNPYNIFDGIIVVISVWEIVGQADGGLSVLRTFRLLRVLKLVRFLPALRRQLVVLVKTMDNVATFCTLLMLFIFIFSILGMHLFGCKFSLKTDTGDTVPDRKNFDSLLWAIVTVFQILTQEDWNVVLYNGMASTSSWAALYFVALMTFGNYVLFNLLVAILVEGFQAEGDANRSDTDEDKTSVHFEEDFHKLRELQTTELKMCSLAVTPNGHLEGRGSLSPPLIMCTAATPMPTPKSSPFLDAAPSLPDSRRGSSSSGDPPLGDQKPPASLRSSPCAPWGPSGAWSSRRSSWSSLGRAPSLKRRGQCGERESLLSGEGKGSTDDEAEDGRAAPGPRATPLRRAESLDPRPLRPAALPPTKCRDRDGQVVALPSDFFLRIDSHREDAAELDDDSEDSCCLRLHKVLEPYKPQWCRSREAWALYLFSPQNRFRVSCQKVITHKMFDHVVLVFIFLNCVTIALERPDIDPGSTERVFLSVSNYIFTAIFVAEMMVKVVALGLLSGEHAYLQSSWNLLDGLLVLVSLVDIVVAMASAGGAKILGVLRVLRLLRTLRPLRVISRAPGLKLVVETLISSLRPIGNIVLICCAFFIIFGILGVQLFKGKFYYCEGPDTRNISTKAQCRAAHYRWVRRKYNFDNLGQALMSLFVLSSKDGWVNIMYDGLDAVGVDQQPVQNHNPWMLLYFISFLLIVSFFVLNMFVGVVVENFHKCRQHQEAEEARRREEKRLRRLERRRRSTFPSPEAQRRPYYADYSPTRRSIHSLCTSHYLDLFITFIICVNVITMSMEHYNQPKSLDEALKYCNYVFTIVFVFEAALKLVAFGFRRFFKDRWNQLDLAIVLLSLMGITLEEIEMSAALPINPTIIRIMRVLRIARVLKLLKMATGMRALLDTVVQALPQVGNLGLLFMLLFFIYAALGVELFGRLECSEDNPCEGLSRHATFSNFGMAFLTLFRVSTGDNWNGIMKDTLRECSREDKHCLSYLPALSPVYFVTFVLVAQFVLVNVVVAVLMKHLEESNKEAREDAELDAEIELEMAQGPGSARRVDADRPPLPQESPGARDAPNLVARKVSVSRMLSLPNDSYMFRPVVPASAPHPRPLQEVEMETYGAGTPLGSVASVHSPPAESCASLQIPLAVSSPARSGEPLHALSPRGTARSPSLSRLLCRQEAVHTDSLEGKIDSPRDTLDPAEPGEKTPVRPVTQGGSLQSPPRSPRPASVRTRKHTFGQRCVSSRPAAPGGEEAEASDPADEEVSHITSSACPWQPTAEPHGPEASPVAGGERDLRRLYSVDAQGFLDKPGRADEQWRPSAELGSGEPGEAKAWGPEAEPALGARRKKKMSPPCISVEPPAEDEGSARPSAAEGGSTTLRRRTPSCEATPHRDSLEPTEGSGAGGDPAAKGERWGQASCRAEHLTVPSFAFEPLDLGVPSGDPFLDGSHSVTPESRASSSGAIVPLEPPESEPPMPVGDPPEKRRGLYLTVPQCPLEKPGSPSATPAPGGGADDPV

For `CCN(CC)S(=O)(=O)c1ccc(OC)c(NC(=O)C(C)Oc2ccc3c(C)cc(=O)oc3c2)c1` (stereo not given), the EC50 [1] was 16.4 µM (inactive).
In the case of `CCn1nc(C)c(CN2CCC(C(=O)Nc3cccc(-c4cccc(F)c4)c3)CC2)c1C`, the EC50 [2] is reported as 49.9 µM (active), the EC50 [3] is reported as > 100 µM (inactive) and the EC50 [4] is reported as 59.8 µM (active). For the same molecule, the IC50 [5] was 8.35 µM (active), the IC50 [6] was 23.4 µM (active) and the EC50 [7] was 52.9 µM (active). The EC50 [8] was 54 µM (active).
For `COC(=O)CCCC1=CC2=CC(=O)C(C)(OC(=O)c3cccs3)C(=O)C2=CN1C1CCCCC1` (stereo not given), the EC50 [9] was > 100 µM (inactive).
For `CNC(=O)c1[nH]cnc1C(=O)N[C@@H](CC(C)C)C(=O)OCc1ccccc1`, the EC50 [10] was 22 µM (inactive) and the EC50 [11] was 5.27 µM (active).
In the case of `COc1cc(C(=S)N2CCCCC2)ccc1O`, the IC50 [12] is reported as 1.68 µM (active), the IC50 [13] is reported as 3.34 µM (active) and the IC50 [14] is reported as > 158 µM (not active). For the same molecule, the IC50 [15] was 0.958 µM (active), the IC50 [16] was 366 nM (active) and > 100 µM (inactive) and the IC50 [17] was 127 nM (active) and 5.55 µM (active). The IC50 [18] was 84.6 nM (active) and 3.16 µM (active), the IC50 [19] was > 100 µM (inactive) and the IC50 [20] was > 66 µM (inactive). The IC50 [21] was 1.2 µM (active), the IC50 [22] was > 66 µM (inactive) and the IC50 [23] was 5.11 µM (active). The IC50 [24] was 0.331 µM (active).
With `CC(Cc1nnc(NC(=O)COc2ccc(Cl)cc2Cl)o1)CC(C)(C)C` (stereo not given) the EC50 [25] was 10 µM (active).
